Patent publication US4870002A, “Method of prevention of oxidative injury to cells” (priority 1985, dated 1989)

What was measured:
[1] = tested on: L5178Y murine lymphosarcoma cells; test: Survival after gamma irradiation by colony formation in soft agar; type: cell-based
Method: The remainder of the cell suspension after irradiation was used for determination of survival by colony formation in soft agar. For each dose, based on estimated survival probability, different numbers of cells were distributed in soft agar suspension (0.4% DIFCO Noble Agar) into 100 mm petri dishes. The dishes were briefly chilled to gel the agar, and then after brief warming in the laminar flow hood, placed in the 37° C. humidified CO2 incubator. The dishes were incubated for 11 days, and the number of colonies were determined using an Artek Automatic Colony Counter.
For the control and each 3-aminotyrosine and radiation dose, the percent cloning efficiency (% CE) was determined by dividing the number of colonies counted at 11 days by the number of cells seeded into the agar, times 100. The 0 dose % CE value was taken to be 100% survival for that chemical. The percent (%) survival reported was calculated by dividing the % CE after a given dose of radiation by the 0 dose % CE, times 100.
THMG/THG treated L5178Y cells were mass cultured and the cell density determined. Aliquots of the cell suspension with enough cells to give 300,000 cells per ml in 60 ml (1.8×10^7 cells) were distributed into three 50 ml centrifuge tubes, and after centrifugation, the original growth medium was discarded. The cells were resuspended in GIBCO custom formulation medium which had been prepared without phenol red. The cells were then washed one more time by centrifugation and resuspended again in 10 ml of the phenol red-free medium. These 10 ml suspensions of cells containing 1.8×10^7 cells were then transferred into three flasks already containing 50 ml of phenol red-free medium, distilled water, and either 100 nanomoles/ml or 2 micromoles/ml solutions of 3-aminotyrosine. The exposure system was treated as light sensitive (i.e., procedures were performed under gold light or reduced lighting).
Immediately after irradiation was completed, the cells were centrifuged, washed twice with F10p, and resuspended in 10 ml of F10p. The cell density was again determined by Coulter counter. […] After 11 days incubation at 37° C., colonies were counted and cell survival was determined.

[2] = tested on: human KBE epidermoid carcinoma cells; test: Survival after gamma irradiation by colony formation; type: cell-based; settings: for radioprotection, in words: low dose
Method: In those experiments performed with media containing phenol red, this medium was replaced (in
each flask) with 10 ml of fresh medium; the flasks were then reincubated at 37° C. for 1 hour. After this time, under yellow light, 0.05 ml aliquots of distilled water or solutions of 3-aminotyrosine were injected to give 1:200 dilutions. […] Flasks were irradiated at 0, 250, 500, or 1000 rads at room temperature as previously described. Efforts were made to keep light exposure to a minimum. For those flasks irradiated for 8 min (10 Gy), the temperature in the flasks would decrease during that interval to 30° C.
Immediately after the irradiations were complete, the attached cells were washed two times with Saline A salt solution, the trypsinized using standard procedures with 1.5 ml of trypsin-EDTA (GIBCO 610-5300). The cells were declumped after inactivation of the trypsin with fresh medium, and the cell density determined by Coulter counter. Cell dilutions of appropriate densities were made with fresh medium in sterile plastic conical centrifuge tubes, and 5 ml aliquots were seeded at two different dilutions for each treatment flask into fresh T-25 flasks (4 replicate flasks at each cell dilution). The flasks were all incubated for 7 days, at which time the old medium was aspirated and the cells were fixed in situ with 100% methanol. The colonies were then stained with 0.3% methylene blue, and rinsed with distilled water. After air drying, colonies greater than 1 mm in diameter were scored as viable colonies. The cloning efficiency in each flask was determined as described for the L5178Y cells above.
In one experiment, treatment with 3-aminotyrosine was performed using custom formulated Earle's BME medium without phenol red (GIBCO 85-0078). Prior to addition of 3-aminotyrosine, cells were washed free of the standard growth medium using Saline A without phenol red.

[3] = tested on: T cell (spleen) peroxidase; test: Inhibition of T cell (spleen) peroxidase activity; type: biochemical
[4] = Zero hour incubation, 250 rads, 2 micromoles/ml
[5] = Zero hour incubation, 250 rads, 100 nanomoles/ml
[6] = Zero hour incubation, 500 rads, 2 micromoles/ml
[7] = Zero hour incubation, 500 rads, 100 nanomoles/ml
[8] = Zero hour incubation, 1000 rads, 2 micromoles/ml
[9] = Zero hour incubation, 1000 rads, 100 nanomoles/ml

`Nc1cc(C[C@H](N)C(=O)O)ccc1O` [3-aminotyrosine, 3-amino-L-tyrosine] was tested, and the “Ratio of Percent Survival, 3-Aminotyrosine/Control” value ([1]; Sixteen hour incubation, 250 rads, 1000 cells seeded, 2 micromoles/ml) was 0.84, the “Ratio of Percent Survival, 3-Aminotyrosine/Control” value ([1]; Sixteen hour incubation, 250 rads, 1000 cells seeded, 100 nanomoles/ml) was 0.81 and the “Ratio of Percent Survival, 3-Aminotyrosine/Control” value ([1]; Sixteen hour incubation, 250 rads, 2000 cells seeded, 2 micromoles/ml) was 0.94. For the same molecule, the “Ratio of Percent Survival, 3-Aminotyrosine/Control” value ([1]; Sixteen hour incubation, 250 rads, 2000 cells seeded, 100 nanomoles/ml) was 0.85, the “Ratio of Percent Survival, 3-Aminotyrosine/Control” value ([1]; Sixteen hour incubation, 500 rads, 1000 cells seeded, 2 micromoles/ml) was 1.20 and the “Ratio of Percent Survival, 3-Aminotyrosine/Control” value ([1]; Sixteen hour incubation, 500 rads, 1000 cells seeded, 100 nanomoles/ml) was 0.63. The “Ratio of Percent Survival, 3-Aminotyrosine/Control” value ([1]; Sixteen hour incubation, 500 rads, 2000 cells seeded, 2 micromoles/ml) was 1.59, the “Ratio of Percent Survival, 3-Aminotyrosine/Control” value ([1]; Sixteen hour incubation, 500 rads, 2000 cells seeded, 100 nanomoles/ml) was 0.98 and the “Ratio of Percent Survival, 3-Aminotyrosine/Control” value ([1]; Sixteen hour incubation, 1000 rads, 2.5 × 10^5 cells seeded, 2 micromoles/ml) was 1.95. For the same molecule, the “Ratio of Percent Survival, 3-Aminotyrosine/Control” value ([1]; Sixteen hour incubation, 1000 rads, 2.5 × 10^5 cells seeded, 100 nanomoles/ml) was 4.91, the “Ratio of Percent Survival, 3-Aminotyrosine/Control” value ([1]; Sixteen hour incubation, 1000 rads, 5.0 × 10^5 cells seeded, 2 micromoles/ml) was 3.22 and the “Ratio of Percent Survival, 3-Aminotyrosine/Control” value ([1]; Sixteen hour incubation, 1000 rads, 5.0 × 10^5 cells seeded, 100 nanomoles/ml) was 1.27. The “Ratio of Percent Survival, 3-Aminotyrosine/Control” value [1, 4] was 0.89, the “Ratio of Percent Survival, 3-Aminotyrosine/Control” value [1, 5] was 0.85 and the “Ratio of Percent Survival, 3-Aminotyrosine/Control” value [1, 6] was 0.63. For the same molecule, the “Ratio of Percent Survival, 3-Aminotyrosine/Control” value [1, 7] was 0.70, the “Ratio of Percent Survival, 3-Aminotyrosine/Control” value [1, 8] was 0.51 and the “Ratio of Percent Survival, 3-Aminotyrosine/Control” value [1, 9] was 0.56. The “effect on cell survival after irradiation, in words” value ([1]; cells preincubated for 16 hours) was “protective of cell survival”, the “Ratio of Percent Survival, 3-Aminotyrosine/Control” value ([2]; Twenty-Four Hour Incubation (No Phenol Red), 250 rads, 2 micromoles/ml) was 1.08 and the “Ratio of Percent Survival, 3-Aminotyrosine/Control” value ([2]; Twenty-Four Hour Incubation (No Phenol Red), 250 rads, 100 nanomoles/ml) was 0.79. The “Ratio of Percent Survival, 3-Aminotyrosine/Control” value ([2]; Twenty-Four Hour Incubation (No Phenol Red), 500 rads, 2 micromoles/ml) was 1.49, the “Ratio of Percent Survival, 3-Aminotyrosine/Control” value ([2]; Twenty-Four Hour Incubation (No Phenol Red), 500 rads, 100 nanomoles/ml) was 0.48 and the “Ratio of Percent Survival, 3-Aminotyrosine/Control” value ([2]; Twenty-Four Hour Incubation (No Phenol Red), 1000 rads, 2 micromoles/ml) was 2.61. For the same molecule, the “Ratio of Percent Survival, 3-Aminotyrosine/Control” value ([2]; Twenty-Four Hour Incubation (No Phenol Red), 1000 rads, 100 nanomoles/ml) was 2.32, the “Ratio of Percent Survival, 3-Aminotyrosine/Control” value ([2]; Twenty-Four Hour Incubation (Phenol Red Present), 250 rads, 2 micromoles/ml) was 1.28 and the “Ratio of Percent Survival, 3-Aminotyrosine/Control” value ([2]; Twenty-Four Hour Incubation (Phenol Red Present), 250 rads, 100 nanomoles/ml) was 1.53. For the same molecule, the “Ratio of Percent Survival, 3-Aminotyrosine/Control” value ([2]; Twenty-Four Hour Incubation (Phenol Red Present), 500 rads, 2 micromoles/ml) was 2.91, the “Ratio of Percent Survival, 3-Aminotyrosine/Control” value ([2]; Twenty-Four Hour Incubation (Phenol Red Present), 500 rads, 100 nanomoles/ml) was 1.36 and the “Ratio of Percent Survival, 3-Aminotyrosine/Control” value ([2]; Twenty-Four Hour Incubation (Phenol Red Present), 1000 rads, 2 micromoles/ml) was 4.65. The “Ratio of Percent Survival, 3-Aminotyrosine/Control” value ([2]; Twenty-Four Hour Incubation (Phenol Red Present), 1000 rads, 100 nanomoles/ml) was 1.63, the “Ratio of Percent Survival, 3-Aminotyrosine/Control” value [2, 4] was 1.70 and the “Ratio of Percent Survival, 3-Aminotyrosine/Control” value [2, 5] was 0.94. The “Ratio of Percent Survival, 3-Aminotyrosine/Control” value [2, 6] was 1.25, the “Ratio of Percent Survival, 3-Aminotyrosine/Control” value [2, 7] was 0.81 and the “Ratio of Percent Survival, 3-Aminotyrosine/Control” value [2, 8] was 2.26. The “Ratio of Percent Survival, 3-Aminotyrosine/Control” value [2, 9] was 0.99, the “effect on survival after irradiation, in words” value ([2]; high concentration, added 24 hours prior to exposure, medium containing phenol red) was “radioprotective effect” and the “radioprotection, in words” value ([2]; 10 minute preincubations (0 hours)) was “no radioprotection”. The “radioprotection, in words” value ([2]; pre-incubation for 24 hours) was “low-dose radioprotection” and the “effect on T cell (spleen) peroxidase activity, in words” value [3] was “inhibit”.
